Measurements taken from patent publication US20170312219A1, “METHOD OF CONTRACEPTION” (Bayer Oy, priority 2008, published 2017).

System: adult cycling cynomolgus macaques
Experiment: animal model of intrauterine bleeding: IUS inserted in macaques, daily vaginal swabs scored for bleeding
Type: in vivo
Settings: Group 1: IUS releasing 2 μg per day of levonorgestrel, 9 monkeys
Procedure: The effects of administering via an intrauterine system (IUS) levonorgestrel alone, or in combination with indomethacin, were tested in animal model of intrauterine bleeding. The study was conducted using three groups of adult cycling cynomolgus macaques. The macaques were monitored to record regular menstrual cycles. Scheduled (menses) and unscheduled uterine bleeding and spotting was assessed daily by vaginal swabs, and menstrual blood loss was quantified by vaginal tampons.
After about two menstrual cycles (about 60 days), the macaques were assigned to three separate groups and laparotomized on days 6-9 of the follicular phase. For each macaque, an IUS was inserted by hysterotomy into the uterine lumen and sutured in place. Group 1 included 9 monkeys that were given an IUS that released 2 μg per day of levonorgestrel. Group 2 included 8 monkeys that were given an IUS that released 2 μg per day of levonorgestrel and 10 μg per day of indomethacin. Group 3 included 7 monkeys that were given an IUS that released 2 μg per day of levonorgestrel and 30 μg per day of indomethacin.
The frequency and type of bleeding was assessed by daily vaginal swabs. FIGS. 9A-9B illustrate the results of the different types of bleedings. Gray-shaed cells represent positive swab or frank menses, which is the most heavy form of bleeding. Diagonal-lined cells represent light positive swab, which is an intermediated type of bleeding.
The gray-shaded cells that were assigned represent the heaviest form of bleeding were assigned a score of 2. The diagonal-lined cells represent an intermediate type of bleeding and were assigned a score of 1.
For evaluation of bleeding days, the first 7 days after insertion of the IUS were neglected, since the insertion procedure by surgery causes some bleeding that is unrelated to treatment effects. FIGS. 9A-9B include data for a period of 80 days after the IUS was inserted in each of the macaques.

[1] = 80 days after insertion, first 7 days neglected

## C#C[C@]1(O)CC[C@H]2[C@@H]3CCC4=CC(=O)CC[C@@H]4[C@H]3CC[C@@]21CC [levonorgestrel]
  average score for each of the macaques (heaviest bleeding = 2, intermediate = 1): 11.9
  total score for all of the macaques (heaviest bleeding = 2, intermediate = 1): 107
[1]
  average number of bleeding days per macaque: 8.6 days
  total number of bleeding days: 77 days
